Test results from patent publication US8772500B2, “TRPV3 modulators” (AbbVie Inc., priority 2011, dated 2014).

What was measured:
human TRPV3 = target: T1, human TRPV3 (Homo sapiens, UniProt Q8NET8); experiment: In vitro antagonism of recombinant human TRPV3 activation (FLIPR Tetra calcium assay, 2-APB as agonist); assay type: cell-based; details: HEK293 cells stably expressing human TRPV3; 2-APB 80 μM; range class; read-out: IC50 (reported range)
T1 construct: expressed in transfected cells
T1 sequence (Q8NET8 1-790): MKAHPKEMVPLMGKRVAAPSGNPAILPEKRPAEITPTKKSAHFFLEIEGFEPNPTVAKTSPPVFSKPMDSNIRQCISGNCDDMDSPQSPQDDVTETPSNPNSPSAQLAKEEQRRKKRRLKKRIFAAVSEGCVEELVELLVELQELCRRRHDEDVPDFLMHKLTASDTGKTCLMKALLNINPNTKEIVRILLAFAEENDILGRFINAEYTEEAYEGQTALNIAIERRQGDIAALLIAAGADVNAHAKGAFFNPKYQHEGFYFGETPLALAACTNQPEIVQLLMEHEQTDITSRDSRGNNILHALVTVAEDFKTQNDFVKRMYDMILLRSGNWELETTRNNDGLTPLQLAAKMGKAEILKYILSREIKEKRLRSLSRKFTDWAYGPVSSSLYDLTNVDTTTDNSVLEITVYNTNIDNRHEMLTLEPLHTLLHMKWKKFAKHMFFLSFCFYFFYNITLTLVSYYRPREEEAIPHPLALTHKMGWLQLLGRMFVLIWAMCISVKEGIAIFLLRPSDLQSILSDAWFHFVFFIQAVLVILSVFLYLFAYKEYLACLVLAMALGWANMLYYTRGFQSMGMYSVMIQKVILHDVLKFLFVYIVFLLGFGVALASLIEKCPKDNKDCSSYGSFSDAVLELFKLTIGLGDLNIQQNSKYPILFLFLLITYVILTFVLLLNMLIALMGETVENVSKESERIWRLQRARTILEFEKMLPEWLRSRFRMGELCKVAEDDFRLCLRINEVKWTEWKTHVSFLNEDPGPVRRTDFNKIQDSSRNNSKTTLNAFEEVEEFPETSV
Procedure: Test compounds were evaluated for ability to antagonize the activation of recombinant human TRPV3 using FLIPR® Tetra cellular screening. Specifically, on the day prior to the experiment recombinant HEK293 cells that stably express human TRPV3 were removed from tissue culture flasks and plated in growth medium at 20,000 cells/well into Poly-d-lysine coated black/clear 384-well Plate (Corning, 3845) using a Multidrop® dispenser (ThermoScientific, Waltham, Mass.). Prior to the start of the assay, the medium was removed by aspiration, and cells were loaded with 30 μL no-wash FLIPR® Calcium-4 dye (λEX=470-495 nm, λEM=515-575 nm; Molecular Devices, Sunnyvale, Calif.). The cells were then incubated for 90-120 minutes in the dark prior to addition of the test compound.
A double-addition protocol was used. The test compound (i.e., the TRPV3 antagonist) was added at the 10 second time point, followed by the addition of a TRPV3 agonist three minutes later. Each test compound evaluated was first dissolved in DMSO to prepare a 10 mM stock solution. A solution (5×) of the test compound was then prepared in DPBS (Dulbecco's Phosphate Buffered Saline) and 10 μL of that solution was added to the cells at a delivery rate of 40 μL/sec. The TRPV3 agonist used to activate human TRPV3 expressed by the […] was 2-aminoethoxy-diphenyl borate (2-APB; Tocris Cookson, Ellisville, Mo.) at 80 μM. Final assay volume was 50 μL. Total length of an experimental run was 10 minutes.
Changes in fluorescence were measured over time using the FLIPR® instrument. The intensity of the fluorescence was captured and digitally transferred to an interfaced computer. The maximum response minus minimum response was calculated and expressed as the percentage of the maximum 2-APB response in the absence of antagonist. The concentration of 2-APB corresponds to its EC80.
Table 1 reports the IC50 values measured for the test compounds as human TRPV3 antagonists. […] Actual measured values are shown parenthetically after the reported range. In most cases, the values reported are average values from at least two runs (i.e., n≧2).

[1] = In vitro human microsomal stability assay; assay type: in vitro ADME; details: human, 0.5 h, 0.5 μM, pH 7.4
Method in brief: (§1)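 Liver microsomes: Sprague-Dawley rat for rat assay, human for human assay; 37 °C; NADPH cofactor, also spiked into time-zero plates.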

[2] = In vitro rat microsomal stability assay; assay type: in vitro ADME, rat (Sprague-Dawley); details: Sprague-Dawley, rat, 0.5 h, 0.5 μM, pH 7.4
Method in brief: as §1

SMILES | IC50 (human TRPV3) [nM] | HUMAN MICROSOMAL STABILITY (% REMAINING AFTER 30 MINUTES) [1] [%] | RAT MICROSOMAL STABILITY (% REMAINING AFTER 30 MINUTES) [2] [%]
OC(C1CCCc2cccnc21)C1(c2ccc(OC(F)(F)F)cc2)CCC1 (stereo not drawn) [Example 177, (anti)-5,6,7,8-tetrahydroquinolin-8-yl{1-[4-(trifluoromethoxy)phenyl]-cyclobutyl}methanol] | 1100 to 5000 | 0.12 | <0.01
O[C@H](c1ccccn1)C1(c2cccc(C(F)(F)F)n2)CCC1 [Example 238, (S)-pyridin-2-yl{1-[6-(trifluoromethyl)pyridin-2-yl]cyclobutyl}methanol] | 1100 to 5000 | 7.1 | 21
OC1CC(c2cc(C(F)(F)F)ccn2)(C(O)c2ccccn2)C1 (single isomer, unassigned) [Example 290] | > 20000 | >85 | 71
OC1CC(c2cc(C(F)(F)F)ccn2)(C(O)c2ccccn2)C1 [Example 282, cis-3-[(S)-hydroxy(pyridin-2-yl)methyl]-3-[4-(trifluoromethyl)pyridin-2-yl]-cyclobutanol] | 501 to 1000 | >85 | >85
COC1(OC)CC(c2ccc(OC(F)(F)F)cc2)(C(O)c2ccccn2)C1 (stereo not drawn) [Example 129, {3,3-dimethoxy-1-[4-(trifluoromethoxy)phenyl]cyclobutyl}(pyridin-2-yl)-methanol] | 50 to 500 | 46 | 0.01
OC(c1ccccn1)C1(c2cccc(OC(F)(F)F)c2)CC2(C1)OCCO2 (stereo not drawn) [Example 235, pyridin-2-yl{2-[3-(trifluoromethoxy)phenyl]-5,8-dioxaspiro[3.4]oct-2-yl}-methanol] | 1100 to 5000 | 20 | <0.01
CC(c1ccc(Cl)cc1)C1(C(O)c2ccccn2)CCC1 (stereo not drawn) [Example 49, {1-[1-(4-chlorophenyl)ethyl]cyclobutyl}(pyridin-2-yl)methanol] | 1100 to 5000 | 15 | 0.13
N[C@@H]1CCC[C@H]1[C@@H](O)C1(c2ccc(Cl)c(Cl)c2)CCC1 [Example 220, (R)-[(1R,2R)-2-aminocyclopentyl][1-(3,4-dichlorophenyl)cyclobutyl]-methanol] | 501 to 1000 | >85 | 67
OC(C1CCCc2cccnc21)C1(c2ccc(Cl)c(Cl)c2)CCC1 (stereo not drawn) [Example 181, (anti)-[1-(3,4-dichlorophenyl)cyclobutyl][5,6,7,8-tetrahydroquinolin-8-yl]-methanol] | 1100 to 5000 | <0.01 | <0.01
O=C1CC(c2cccc(C(F)(F)F)c2)(C(O)c2ccccn2)C1 (stereo not drawn) [Example 245, 3-[hydroxy(pyridin-2-yl)methyl]-3-[3-(trifluoromethyl)phenyl]cyclobutanone] | 1100 to 5000 | 57 | 72
OC(c1ccccn1)C1(c2ccc(OC(F)(F)F)cc2)CC(F)(F)C1 (stereo not drawn) [Example 112, {3,3-difluoro-1-[4-(trifluoromethoxy)phenyl]cyclobutyl}(pyridin-2-yl)-methanol] | 50 to 500 | 75 | 75
OC(c1ccccn1)C1(c2nc3ccccc3s2)CCC1 (stereo not drawn) [Example 266, [1-(1,3-benzothiazol-2-yl)cyclobutyl](pyridin-2-yl)methanol] | 1100 to 5000 | 46 | 0.14
N[C@H]1CCC[C@@H]1[C@H](O)C1(c2ccc(OC(F)(F)F)cc2)CCC1 [Example 222, (S)-[(1S,2S)-2-aminocyclopentyl]{1-[4-(trifluoromethoxy)phenyl]-cyclobutyl}methanol] | 1100 to 5000 | >85 | 59
O[C@H](c1ccccn1)C1(c2ccc(Cl)c(Cl)c2)CC1 [Example 231, (S)-[1-(3,4-dichlorophenyl)cyclopropyl](pyridin-2-yl)methanol] | 501 to 1000 | 4.0 | 17
OC1CC(c2ccc(C(F)(F)F)cc2)(C(O)c2ccccn2)C1 [Example 200, cis-3-[(S)-hydroxy(pyridin-2-yl)methyl]-3-[4-(trifluoromethyl)phenyl]-cyclobutanol] | 5100 to 20000 | >85 | >85
CC1(O)CC(c2ccc(C(F)(F)F)cc2)(C(O)c2ccccn2)C1 (single isomer, unassigned) [Example 232] | 1100 to 5000 | 80 | 67
OC1CC(c2ccc(F)c(Cl)c2)([C@H](O)c2ccccn2)C1 (stereo partly drawn) [Example 276, 3-(3-chloro-4-fluorophenyl)-3-[(S)-hydroxy(pyridin-2-yl)methyl]-cyclobutanol] | 50 to 500 | 72 | 73
OC(c1ccccn1)C1(c2cccc(OC(F)(F)F)c2)CCOCC1 (stereo not drawn) [Example 66, pyridin-2-yl{4-[3-(trifluoromethoxy)phenyl]tetrahydro-2H-pyran-4-yl}-methanol] | 1100 to 5000 | 31 | 23
OC1CC(c2cncc(C(F)(F)F)c2)(C(O)c2ccccn2)C1 [Example 304, trans-3-[(S)-hydroxy(pyridin-2-yl)methyl]-3-[5-(trifluoromethyl)pyridin-3-yl]cyclobutanol] | 50 to 500 | >85 | 44
OC(c1ccccn1)C1(c2ccc(Oc3ccccc3)cc2)CCC1 (stereo not drawn) [Example 24, [1-(4-phenoxyphenyl)cyclobutyl](pyridin-2-yl)methanol] | 1100 to 5000 | 20 | 17
O=C1CC(c2cc(C(F)(F)F)ccn2)([C@@H](O)c2ccccn2)C1 [Example 278, 3-[(R)-hydroxy(pyridin-2-yl)methyl]-3-[4-(trifluoromethyl)pyridin-2-yl]-cyclobutanone] | 5100 to 20000 | 83 | >85
OC(c1ccccn1)C1(c2ccc(Cl)c(Cl)c2)CCOCC1 (stereo not drawn) [Example 59, [4-(3,4-dichlorophenyl)tetrahydro-2H-pyran-4-yl](pyridin-2-yl)methanol] | 1100 to 5000 | 45 | 12
